Measurements from patent US9586907B2, “Isothiocyanate compounds, pharmaceutical compositions, and uses thereof” (priority 2006, dated 2017).
In brackets after ≈: the same amount, converted by molar mass.

Columns and labels:
[1] = tested on: Enterobacter cloacii BK12313; assay: MIC, Enterobacter cloacii BK12313
virus (92TH594) = assay: Viral proliferation in PBMC, p24 viral antigen; type: cell-based; settings: PBMC
[2] = In vivo tolerance in mice; settings: highest dose, 50 mg/kg
[3] = tested on: Mycobacterium tuberculosis H37Rv strain; assay: In vitro infection model, bacterial growth inhibition in infected macrophages; type: cell-based; settings: M. tuberculosis H37Rv; up to 1 μg/mL; Rifampicin control
Text: Rifampicin was used as a control for this experiment.

[4] = tested on: human peritoneal macrophages infected with Mycobacterium tuberculosis H37Rv strain; assay: In vitro infection model, cytotoxicity; settings: up to 1 μg/mL; Rifampicin control
[5] = tested on: Cryptococcus neoformans CNH99; assay: Anti-fungal MIC, Cryptococcus neoformans CNH99
[6] = tested on: Aspergillus fumigatus Rit 1; assay: Anti-fungal MIC, Aspergillus fumigatus Rit 1
Candida crusei 6258^mdr [7] = tested on: Candida crusei 6258^mdr
[8] = tested on: Candida albicans 5108^mdr; assay: Anti-fungal MIC, Candida albicans 5108^mdr
Candida albicans 90028 = assay: Anti-fungal MIC, Candida albicans 90028
[9] = tested on: Candida parapsilosis 22019; assay: Anti-fungal MIC, Candida parapsilosis 22019
Candida dlabrata 250^mdr = assay: Anti-fungal MIC, Candida dlabrata 250^mdr
Candida albicans 90030 = assay: Anti-fungal MIC, Candida albicans 90030
[10] = tested on: Aspergillus fumigatus Rit 11; assay: Anti-fungal MIC, Aspergillus fumigatus Rit 11
[11] = tested on: Aspergillus fumigatus Rit 21; assay: Anti-fungal MIC, Aspergillus fumigatus Rit 21
Bacillus cereus [12] = assay: Pre-incubation of compound in MHB medium, inhibitory activity against Bacillus cereus; type: cell-based; settings: initial concentration equal to the MIC value; FIG. 5
Protocol: Preincubation of Compound 37 in Culture Medium and Its Effect on Growth-Inhibitory Activity. Compound 37 was added to liquid Muller-Hinton Broth (MHB) medium in microtiter plate to final concentration 2 mg/ml and incubated for the periods of time indicated in FIG. 5 before addition to cultures of B. cereus. After incubation for 20 h at 37° C., bacterial growth was assessed by measuring of the turbidity at 600 nm.
ITC compounds can react with amine- and thiol-containing components of the culture media with the formation of corresponding thioureas and dithiocarbamates. The effect of pre-incubation of Compound 37 in MHB medium on its inhibitory activity against Bacillus cereus was determined at an initial concentration equal to the MIC value. While no growth of the bacteria occurs upon immediate addition of the inhibitor, progressive growth is observed as a function of pre-incubation time.

Staphylococcus aureus = assay: Bactericidal/bacteriostatic activity (CFU), Staphylococcus aureus; type: cell-based; settings: 1 to 2 hours, FIG. 2B
Bacillus cereus [13] = assay: Bactericidal/bacteriostatic activity (CFU), Bacillus cereus; type: cell-based
[14] = tested on: human acute monocytic leukemia cells (THP1 cells); assay: Growth of THP1 cells, MTT metabolic assay; type: cell-based; settings: Homo sapiens, THP-1, 24 h, read-out: drop in cell viability
Protocol: THP1 cells were either mock-treated (DMSO vehicle alone), or treated with increasing doses of new compounds 37 and 45, from 0 to 32 μg/mL. Cells were incubated in the presence of compound for 24 hours, and subsequently were assayed for total cell viability using an MTT, metabolic assay.

Candida crusei 6258^mdr [15] = assay: microbe, parasite or virus in culture; settings: read-out: Anti-Fungal Activity (MIC)
[16] = Enterobacter cloacii BK12313, Gram −, 24 hours of incubation
[17] = compound 2.5 μg/ml, added to the cells after viral infection
[18] = compound 2.5 μg/ml, added to the cells before viral infection
[19] = compound 10 μg/ml, added to the cells after viral infection
[20] = compound 10 μg/ml, added to the cells before viral infection

Q: Which results are given for S=C=NCCCCCCCCN=C=S [Compound 42, S═C═N—(CH2)8—N═C═S]?
A: MIC [1, 16]: 64 µg/mL (≈ 280 µM); P24 values (virus (92TH594); [17]): 630 pg/mL; P24 values (virus (92TH594); [18]): 220 pg/mL; P24 values (virus (92TH594); [19]): 700 pg/mL; P24 values (virus (92TH594); [20]): 0 pg/mL; toxicity in treated mice [2]: no toxicity was observed; growth inhibitory activity in infected macrophages [3]: gave similar results; cytotoxicity in infected macrophages [4]: exhibited more toxicity

Q: Which MIC [1, 16] does the source give for S=C=NCCCCCCCN=C=S [Compound 41, S═C═N—(CH2)7—N═C═S] here?
A: Its MIC is >64 µg/mL.

Q: And the “Anti-Fungal Activity (MIC)” value ([5]; Cryptococcus neoformans CNH99)?
A: Its value is <1 µg/mL.

Q: And the “Anti-Fungal Activity (MIC)” value ([6]; Aspergillus fumigatus Rit 1)?
A: Its value is 4 µg/mL.

Q: What about the “Anti-Fungal Activity (MIC)” value (Candida crusei 6258^mdr [7]) of the same molecule?
A: Its value is 2 µg/mL.

Q: And the “Anti-Fungal Activity (MIC)” value ([8]; Candida albicans 5108^mdr)?
A: The value was 8 µg/mL.

Q: What about the “Anti-Fungal Activity (MIC)” value (Candida albicans 90028; Candida albicans 90028) of the same molecule?
A: The value was 8 µg/mL.

Q: And the “Anti-Fungal Activity (MIC)” value ([9]; Candida parapsilosis 22019)?
A: The value was 2 µg/mL.

Q: What about the “Anti-Fungal Activity (MIC)” value (Candida dlabrata 250^mdr; Candida dlabrata 250^mdr) of the same molecule?
A: Its value is <1 µg/mL.

Q: What about the “Anti-Fungal Activity (MIC)” value (Candida albicans 90030; Candida albicans 90030) of the same molecule?
A: The value was <1 µg/mL.

Q: What about the “Anti-Fungal Activity (MIC)” value ([10]; Aspergillus fumigatus Rit 11) of the same molecule?
A: The value was 4 µg/mL.

Q: And the “Anti-Fungal Activity (MIC)” value ([11]; Aspergillus fumigatus Rit 21)?
A: Its value is 4 µg/mL.

Q: With S=C=NCc1ccc(CN=C=S)cc1 [Compound 37] as the molecule, how does the MIC ([1]; Enterobacter, BK12313, 24 h) read?
A: Its MIC is > 64 µg/mL.

Q: What about the MIC ([5]; Cryptococcus neoformans, CNH99, read-out: Anti-Fungal Activity (MIC)) of the same molecule?
A: Its MIC is < 1 µg/mL.

Q: What about the MIC ([6]; Aspergillus fumigatus, RIT1, read-out: Anti-Fungal Activity (MIC)) of the same molecule?
A: Its MIC is 0.5 µg/mL (≈ 2.27 µM).

Q: What about the “effect of pre-incubation in MHB medium on inhibitory activity” value (Bacillus cereus [12]) of the same molecule?
A: The value was “decrease of inhibition potency”.

Q: What about the “effect on Staphylococcus aureus cultures” value (Staphylococcus aureus) of the same molecule?
A: Its value is “bacteriostatic effect”.

Q: What about the “bacterial growth at 20 h” value (Bacillus cereus [13]; Compound at 4 μg/ml, data not shown) of the same molecule?
A: Its value is “no bacterial growth was detected”.

Q: What about the “cell viability of Bacillus cereus (CFU)” value (Bacillus cereus [13]; incubation 1 to 2 hours, FIG. 2A) of the same molecule?
A: Its value is “dramatic decrease in cell viability”.

Q: What about the cytotoxicity at 8 µg/mL [14] of the same molecule?
A: The cytotoxicity at 8 µg/mL was ~25%.

Q: And the MIC ([8]; Candida albicans, read-out: Anti-Fungal Activity (MIC))?
A: The MIC was 0.5 µg/mL (≈ 2.27 µM).

Q: And the MIC (Candida crusei 6258^mdr [15])?
A: The MIC was 0.5 µg/mL (≈ 2.27 µM).

Q: What about the MIC (Candida albicans 90028; Candida albicans, 90028, read-out: Anti-Fungal Activity (MIC)) of the same molecule?
A: The MIC was 0.5 µg/mL (≈ 2.27 µM).

Q: What about the P24 values (virus (92TH594); [17]) of the same molecule?
A: The P24 values was 760 pg/mL.

Q: And the P24 values (virus (92TH594); [18])?
A: Its P24 values is 210 pg/mL.

Q: And the P24 values (virus (92TH594); [19])?
A: The P24 values was 340 pg/mL.

Q: What about the P24 values (virus (92TH594); [20]) of the same molecule?
A: The P24 values was 0 pg/mL.

Q: And the “toxicity in treated mice” value [2]?
A: Its value is “no toxicity was observed”.

Q: And the MIC ([9]; 22019, read-out: Anti-Fungal Activity (MIC))?
A: Its MIC is 0.5 µg/mL (≈ 2.27 µM).

Q: And the MIC (Candida dlabrata 250^mdr; Candida, 48 h, read-out: Anti-Fungal Activity (MIC))?
A: Its MIC is 0.125 µg/mL (≈ 0.567 µM).

Q: And the MIC (Candida albicans 90030; Candida albicans, 90030, read-out: Anti-Fungal Activity (MIC))?
A: Its MIC is 0.5 µg/mL (≈ 2.27 µM).

Q: What about the “growth inhibitory activity in infected macrophages” value [3] of the same molecule?
A: Its value is “gave similar results”.

Q: What about the MIC ([10]; Aspergillus fumigatus, RIT11, read-out: Anti-Fungal Activity (MIC)) of the same molecule?
A: Its MIC is 0.5 µg/mL (≈ 2.27 µM).

Q: What about the “cytotoxicity in infected macrophages” value [4] of the same molecule?
A: Its value is “exhibited more toxicity”.

Q: What about the MIC ([11]; Aspergillus fumigatus, RIT21, read-out: Anti-Fungal Activity (MIC)) of the same molecule?
A: The MIC was 0.5 µg/mL (≈ 2.27 µM).
